Tests used:
Conditions in all cases: 72 h
KU-812 [1] = assay: cell viability (% survival relative to DMSO control, bortezomib = 0%); higher = less cytotoxic
Summary of the method: (§1)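 Seeding density for each of the 10 AML and 5 CML cell lines was titrated to the linear growth range. Cells went into 384-well plates pre-printed in duplicate with compounds at 1, 10, 100, 1000 or 10000 nM and were held for 72 h at 37 °C with 5% CO2. CellTiter-Glo luminescence then provided the readout. Percent survival is expressed relative to vehicle at 100% and a 10 µM positive control at 0%, averaged over duplicates.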

SHI-1 [2] = assay: as above
Summary of the method: as §1

KCL-22 [3] = assay: as above
Summary of the method: as §1

LAMA-84 [4] = assay: as above
Summary of the method: as §1

Mono-Mac-6 [5] = assay: as above
Summary of the method: as §1

HL-60 [6] = assay: as above
Summary of the method: as §1

MV4-11 [7] = assay: as above
Summary of the method: as §1

K-562 [8] = assay: as above
Summary of the method: as §1

MOLM-13 [9] = assay: as above
Summary of the method: as §1

NOMO-1 [10] = assay: as above
Summary of the method: as §1

KG-1 [11] = assay: as above
Summary of the method: as §1

HEL [12] = assay: as above
Summary of the method: as §1

BV-173 [13] = assay: as above
Summary of the method: as §1

THP-1 [14] = assay: as above
Summary of the method: as §1

ML-2 [15] = assay: as above
Summary of the method: as §1

KU-812 [16] = tested on: KU-812
Summary of the method: (§2)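 Fifteen myeloid leukaemia lines were incubated for 72 h at 37 °C with 5% CO2 across five tenfold doses from 1 to 10,000 nM, in duplicate. ATP luminescence was normalised to vehicle and to a positive control at 10 µM and fitted with a four-parameter log-logistic model. The IC50 came from these dose–response fits.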

SHI-1 [17] = tested on: SHI-1
Summary of the method: as §2

KCL-22 [18] = tested on: KCL-22
Summary of the method: as §2

LAMA-84 [19] = tested on: LAMA-84
Summary of the method: as §2

Mono-Mac-6 [20] = tested on: Mono-Mac-6
Summary of the method: as §2

HL-60 [21] = tested on: HL-60
Summary of the method: as §2

MV4-11 [22] = tested on: MV4-11
Summary of the method: as §2

K-562 [23] = tested on: K-562
Summary of the method: as §2

MOLM-13 [24] = tested on: MOLM-13
Summary of the method: as §2

NOMO-1 [25] = tested on: NOMO-1
Summary of the method: as §2

KG-1 [26] = tested on: KG-1
Summary of the method: as §2

HEL [27] = tested on: HEL
Summary of the method: as §2

BV-173 [28] = tested on: BV-173
Summary of the method: as §2

THP-1 [29] = tested on: THP-1
Summary of the method: as §2

ML-2 [30] = tested on: ML-2
Summary of the method: as §2

CCN(CC)C(=S)SSC(=S)N(CC)CC [Disulfiram]
cell viability [%]
Conditions | 1 nM | 10 nM | 100 nM | 1000 nM | 10000 nM
BV-173 [13] | 96 | 103 | 97.6 | 37.5 | -0.175
HEL [12] | 101 | 86.8 | 96.6 | 87.9 | 68
HL-60 [6] | 100 | 104 | 89.2 | 83.3 | 93.7
K-562 [8] | 90.2 | 99.1 | 89.8 | 29.7 | 70.9
KCL-22 [3] | 72.4 | 92.3 | 94.4 | 61.3 | 62.7
KG-1 [11] | 92.7 | 89.8 | 92.7 | 2.8 | 22
KU-812 [1] | 99.7 | 99.3 | 97 | 66 | 66.9
LAMA-84 [4] | 93.5 | 94.5 | 94.4 | 90.8 | 67.7
ML-2 [15] | 92 | 106 | 91.4 | 6.36 | 11.6
MOLM-13 [9] | 94.1 | 76.7 | 93.3 | 98.2 | 92.7
MV4-11 [7] | 94.1 | 114 | 98.3 | 88.7 | 53.5
Mono-Mac-6 [5] | 91.9 | 100 | 67.9 | 25.5 | 62.5
NOMO-1 [10] | 95.3 | 99.4 | 101 | 92 | 88.9
SHI-1 [2] | 87.7 | 92.8 | 44.8 | -0.354 | 65.1
THP-1 [14] | 94.5 | 95.6 | 48.1 | 30.5 | 57.4

Conditions | IC50 (cell viability) [µM]
BV-173 [28] | 0.778
HEL [27] | > 10
HL-60 [21] | > 10
K-562 [23] | 0.447
KCL-22 [18] | > 10
KG-1 [26] | 0.272
KU-812 [16] | > 10
LAMA-84 [19] | > 10
ML-2 [30] | 0.264
MOLM-13 [24] | > 10
MV4-11 [22] | 7.02
Mono-Mac-6 [20] | 0.171
NOMO-1 [25] | > 10
SHI-1 [17] | 0.0728
THP-1 [29] | 0.0708

c1cc(-c2cnn3cc(-c4ccc(OCCN5CCCCC5)cc4)cnc23)ccn1 [Dorsomorphin]
cell viability [%]
Conditions | 1 nM | 10 nM | 100 nM | 1000 nM | 10000 nM
BV-173 [13] | 89.8 | 108 | 99.9 | 90.1 | 53.2
HEL [12] | 87.1 | 105 | 99.4 | 103 | 72.6
HL-60 [6] | 113 | 110 | 94.9 | 97.1 | 93.9
K-562 [8] | 94.2 | 97.4 | 93.3 | 92.1 | 93.5
KCL-22 [3] | 108 | 106 | 102 | 94.6 | 37.7
KG-1 [11] | 94.4 | 117 | 98.8 | 99.8 | 50.8
KU-812 [1] | 91.9 | 97.1 | 97.2 | 85.9 | 1.77
LAMA-84 [4] | 96.4 | 98.8 | 96.5 | 96.1 | 28.8
ML-2 [15] | 95.2 | 113 | 96.7 | 88.3 | 44.1
MOLM-13 [9] | 77.6 | 78.5 | 97.5 | 108 | 97.8
MV4-11 [7] | 89.9 | 117 | 97.4 | 99.8 | 89.1
Mono-Mac-6 [5] | 95.3 | 101 | 103 | 42.8 | 6.23
NOMO-1 [10] | 93.2 | 105 | 98.8 | 92.7 | 48.5
SHI-1 [2] | 104 | 102 | 95.6 | 103 | 113
THP-1 [14] | 94.5 | 101 | 101 | 96.2 | 55.6

Conditions | IC50 (cell viability) [µM]
BV-173 [28] | 7.28
HEL [27] | > 10
HL-60 [21] | > 10
K-562 [23] | > 10
KCL-22 [18] | 6.79
KG-1 [26] | > 10
KU-812 [16] | 2.6
LAMA-84 [19] | 6.49
ML-2 [30] | 5.24
MOLM-13 [24] | > 10
MV4-11 [22] | > 10
Mono-Mac-6 [20] | 0.811
NOMO-1 [25] | 6.43
SHI-1 [17] | > 10
THP-1 [29] | > 10

C[C@H]1c2cccc(O)c2C(=O)C2C(=O)[C@]3(O)C(=O)C(C(N)=O)C(=O)[C@@H](N(C)C)[C@@H]3[C@@H](O)[C@@H]21 (stereo not given in full) [Doxycycline]
cell viability [%]
Conditions | 1 nM | 10 nM | 100 nM | 1000 nM | 10000 nM
BV-173 [13] | 107 | 87.9 | 99.2 | 102 | 69.7
HEL [12] | 120 | 107 | 90.5 | 108 | 75.3
HL-60 [6] | 123 | 100 | 118 | 111 | 67.4
K-562 [8] | 112 | 97 | 97.3 | 101 | 46.2
KCL-22 [3] | 130 | 69.3 | 93.6 | 109 | 41.6
KG-1 [11] | 106 | 91.7 | 95.9 | 95.1 | 87.9
KU-812 [1] | 111 | 88.3 | 105 | 102 | 74.4
LAMA-84 [4] | 101 | 95.3 | 106 | 92 | 66.1
ML-2 [15] | 111 | 103 | 97.9 | 90 | 45.9
MOLM-13 [9] | 124 | 114 | 92.7 | 104 | 74.5
MV4-11 [7] | 110 | 105 | 94.2 | 97 | 50.9
Mono-Mac-6 [5] | 103 | 98.6 | 109 | 94.7 | 90.4
NOMO-1 [10] | 103 | 92 | 104 | 103 | 90.3
SHI-1 [2] | 111 | 98 | 112 | 105 | 90.8
THP-1 [14] | 95 | 95.9 | 100 | 105 | 106

Conditions | IC50 (cell viability) [µM]
BV-173 [28] | > 10
HEL [27] | > 10
HL-60 [21] | > 10
K-562 [23] | 9.29
KCL-22 [18] | 8.54
KG-1 [26] | > 10
KU-812 [16] | > 10
LAMA-84 [19] | > 10
ML-2 [30] | 8.51
MOLM-13 [24] | > 10
MV4-11 [22] | > 10
Mono-Mac-6 [20] | > 10
NOMO-1 [25] | > 10
SHI-1 [17] | > 10
THP-1 [29] | > 10
